Experimental data taken from patent EP0968649A1, “Adjuvants for novel dry herbicide formulations” (E.I. DU PONT DE NEMOURS AND COMPANY, priority 1998, dated 2000).

How the values were obtained:
Type in all cases: in vivo
[1] = test system: velvetleaf (Abutilon theophrastic); assay: Example 23: adjuvants tank mixed with chlorimuron ethyl, percent control from green fresh weights; conditions: herbicide alone, no adjuvant; chlorimuron ethyl 1.5 g/ha; 187 L/ha; after two weeks
Description: (§1) The effect of adjuvants on the activity of chlorimuron ethyl was investigated by tank mixing the adjuvants with the herbicide. Evaluation of the adjuvants was made by mixing the adjuvant with an herbicide solution and spraying the resulting solution at a rate of 1.5 g/ha chlorimuron ethyl in a spray volume of 187 L/ha on velvetleaf (Abutilon theophrastic). Four replications were made of each treatment. Plants were evaluated after two weeks by measuring their green fresh weights and convening these weight by comparison to an untreated control treatment into percent control values.

[2] = test system: giant foxtail (Setaria faberi); assay: Example 21: adjuvants tank mixed with isopropylamine salt of glyphosate, percent control from green fresh weights; conditions: herbicide alone, no added adjuvant; 210 g/ha isopropylamine salt of glyphosate; 187 L/ha; after two weeks
Description: as §1, with “of the isopropylamine salt of glyphosate” for “of chlorimuron ethyl”, “of 210” for “of 1.5”, “g/ha isopropylamine salt of glyphosate” for “g/ha chlorimuron ethyl”, “on giant foxtail (Setaria faberi).” for “on velvetleaf (Abutilon theophrastic).”, “and converting” for “and convening”

[3] = test system: Alopecurus myosuroides (ALOMY); assay: Example 8: field weed control, adjuvants mixed with flupyrsulfuron methyl, visual percent growth reduction and head count; conditions: surfactant, where named, 0.1%; for % control ALOMY: 300 L/ha, 60 days after treatment; for Heads/m^2 ALOMY: at 85 days, untreated 784
Text: (§2) Evaluation of the adjuvants was made, in the field by mixing the adjuvant with flupyrsulfuron methyl herbicide and spraying the resulting solution at a rate of 2.5 to 20 g/ha flupyrsulfuron methyl in a spray volume of 300 L/ha on Alopecurus myosuroides (ALOMY). Surfactants were applied at a concentration of 0.1 % by weight of SC5045 or 0.1 % by volume of Trend® 90 per volume of spray solution. Three replications were made of each treatment. Weed control was visually assessed 60 days after treatment by evaluating the percent growth reduction, using a 0 to 100% scale where 0% equals no control, and 100% equals death of the weed and by counting the number of ALOMY heads per m^2, at 85 days.

[4] = test system: giant foxtail (Setaria faberi); assay: Example 19: adjuvants tank mixed with nicosulfuron, percent control from green fresh weights; conditions: Adjuvant Conc. 0 % w/w (no adjuvant); nicosulfuron 3.5 g/ha; 187 L/ha; after two weeks
Description: as §1, with “nicosulfuron” for “chlorimuron ethyl”, “a nicosulfuron” for “an herbicide”, “3.5” for “1.5”, “giant foxtail (Setaria faberi). Three” for “velvetleaf (Abutilon theophrastic). Four”, “converting” for “convening”

[5] = test system: giant foxtail (Setaria faberi); assay: Example 20: adjuvants tank mixed with nicosulfuron, percent control from green fresh weights; conditions: herbicide alone, no adjuvant; nicosulfuron 3.5 g/ha; 187 L/ha; after two weeks
Description: as §1, with “nicosulfuron” for “chlorimuron ethyl”, “a nicosulfuron” for “an herbicide”, “3.5” for “1.5”, “giant foxtail (Setaria faberi).” for “velvetleaf (Abutilon theophrastic).”, “treatment. The experiment was repeated three times.” for “treatment.”, “converting” for “convening”

[6] = test system: giant foxtail (Setaria faberi); assay: Example 22: adjuvants tank mixed with quizalofop-ethyl, percent control from green fresh weights; conditions: herbicide alone, no adjuvant; quizalofop-ethyl 3.5 g/ha; 187 L/ha; after two weeks
Description: as §1, with “quizalofop-ethyl” for “chlorimuron ethyl”, “3.5” for “1.5”, “giant foxtail (Setaria faberi).” for “velvetleaf (Abutilon theophrastic).”, “treatment. The experiment was repeated two times.” for “treatment.”, “converting” for “convening”

[7] = test system: Alopecurus myosuroides (ALOMY); assay: Example 6: field weed control, SCS5045 surfactant mixed with sulfosulfuron, visual percent growth reduction and head count; conditions: where named, 0.1%; for % control ALOMY: 300 L/ha, 60 days after treatment; for Heads/m^2 ALOMY: counted 85 days after treatment, untreated 400
Text: as §2, with “SCS5045 surfactant” for “the adjuvants”, “surfactant” for “adjuvant”, “sulfosulfuron” for “flupyrsulfuron methyl”, “11.25” for “2.5”, “45 g /ha sulfosulfuron” for “20 g/ha flupyrsulfuron methyl”, “weed.” for “weed and by counting the number of ALOMY heads per m^2, at 85 days.”
The number of ALOMY heads per m^2 was also counted 85 days after treatment.

[8] = test system: Veronica hederifolia (VERHE); assay: Example 7: field weed control, SCS5045 surfactant mixed with metsulfuron methyl, visual percent growth reduction; conditions: where named, 0.1%, 300 L/ha, 50 days after treatment
Text: Evaluation of SCS5045 surfactant was made, in the field by mixing the surfactant with metsulfuron methyl herbicide and spraying the resulting solution at a rate of 5.625 to 45 g/ha metsulfuron methyl in a spray volume of 300 L/ha on Veronica hederifolia (VERHE). Surfactants were applied at a concentration of 0.1% by weight (if the surfactant is dry) or by volume (if the surfactant is a liquid) of surfactant per volume of spray solution. Three replications were made of each treatment. Weed control was visually assessed 50 days after treatment by evaluating the percent growth reduction, using a 0 to 100% scale where 0% equals no control, and 100% equals death of the weed.

[9] = test system: common lambsquarters (Chenopodium album L.); assay: Example 24: adjuvants tank mixed with thifensulfuron methyl, percent control from green fresh weights; conditions: herbicide alone, no adjuvant; thifensulfuron methyl 2 g/ha; 187 L/ha; after two weeks
Description: as §1, with “thifensulfuron methyl” for “chlorimuron ethyl”, “2” for “1.5”, “common lambsquarters (Chenopodium album L.).” for “velvetleaf (Abutilon theophrastic).”, “converting” for “convening”

[10] = test system: Veronica agrestis (VERAG); assay: Example 5: weed control, SCS5045 surfactant mixed with tribenuron methyl, visual percent growth reduction; conditions: where named, 0.1%, 300 L/ha, 70 days after treatment
Text: (§3) Evaluation of SCS5045 surfactant was made by mixing the surfactant with tribenuron methyl herbicide and spraying the resulting solution at a rate of 5.625 to 45 g/ha tribenuron methyl in a spray volume of 300 L/ha on Viola arvensis (VIOAR) and Veronica agrestis (VERAG). Surfactants were applied at a concentration of 0.1% by weight (if the surfactant is dry) or by volume (if the surfactant is a liquid) of surfactant per volume of spray solution. Three replications were made of each treatment. Weed control was visually assessed 70 days after treatment by evaluating the percent growth reduction, using a 0 to 100% scale where 0% equals no control, and 100% equals death of the weed.

Viola arvensis (VIOAR) = assay: as above; conditions: where named, 0.1%, 300 L/ha, 70 days after treatment
Text: as §3

[11] = flupyrsulfuron methyl 2.5 g herbicide /ha
[12] = flupyrsulfuron methyl 5 g herbicide /ha
[13] = flupyrsulfuron methyl 10 g herbicide /ha
[14] = flupyrsulfuron methyl 20 g herbicide /ha
[15] = sulfosulfuron 11.25 g herbicide /ha
[16] = sulfosulfuron 22.5 g herbicide /ha
[17] = sulfosulfuron 33.75 g herbicide /ha
[18] = sulfosulfuron 45 g herbicide /ha
[19] = tribenuron methyl 5.625 g ai/ha
[20] = tribenuron methyl 11.25 g ai/ha

CCOC(=O)c1ccccc1S(=O)(=O)NC(=O)Nc1nc(Cl)cc(OC)n1 [Chlorimuron Alone, chlorimuron ethyl]
% Velvetleaf Control [1]: 53%

CC(C)N.O=C(O)CNCP(=O)(O)O [Glyphosate IPA Alone, isopropylamine salt of glyphosate]
% Control [2]: 85%

COC(=O)c1ccc(C(F)(F)F)nc1S(=O)(=O)NC(=O)Nc1nc(OC)cc(OC)n1 [KE459, flupyrsulfuron methyl]
% control ALOMY [3, 11]: 63%
Heads/m^2 ALOMY [3, 11]: 224 Heads/m^2
% control ALOMY [3, 12]: 73%
Heads/m^2 ALOMY [3, 12]: 164 Heads/m^2
% control ALOMY [3, 13]: 77%
Heads/m^2 ALOMY [3, 13]: 16 Heads/m^2
% control ALOMY [3, 14]: 88%
Heads/m^2 ALOMY [3, 14]: 8 Heads/m^2

COc1cc(OC)nc(NC(=O)NS(=O)(=O)c2ncccc2C(=O)N(C)C)n1 [Nicosulfuron Alone, nicosulfuron]
percent control [4]: 0%
% Control [5]: 2%

CCOC(=O)C(C)Oc1ccc(Oc2cnc3cc(Cl)ccc3n2)cc1 (stereo not shown) [Quizalofop Ethyl Alone, quizalofop-ethyl]
% Control [6]: 7%

CCS(=O)(=O)c1nc2ccccn2c1S(=O)(=O)NC(=O)Nc1nc(OC)cc(OC)n1 [Sulfosulfuron, sulfosulfuron]
% control ALOMY [7, 15]: 33%
Heads/m^2 ALOMY [7, 15]: 209 Heads/m^2
% control ALOMY [7, 16]: 47%
Heads/m^2 ALOMY [7, 16]: 76 Heads/m^2
% control ALOMY [7, 17]: 60%
Heads/m^2 ALOMY [7, 17]: 25 Heads/m^2
% control ALOMY [7, 18]: 77%
Heads/m^2 ALOMY [7, 18]: 6 Heads/m^2

COC(=O)c1ccccc1S(=O)(=O)NC(=O)Nc1nc(C)nc(OC)n1 [T6376, metsulfuron methyl]
VERHE (percent growth reduction) ([8]; metsulfuron methyl 5.625 g herbicide /ha): 33%
VERHE (percent growth reduction) ([8]; metsulfuron methyl 11.25 g herbicide /ha): 33%
VERHE (percent growth reduction) ([8]; metsulfuron methyl 22.5 g herbicide /ha): 52%
VERHE (percent growth reduction) ([8]; metsulfuron methyl 45 g herbicide /ha): 100%

COC(=O)c1sccc1S(=O)(=O)NC(=O)Nc1nc(C)nc(OC)n1 [Thifensulfuron Alone, thifensulfuron methyl]
% Common Lambsquarters Control [9]: 11%

COC(=O)c1ccccc1S(=O)(=O)NC(=O)N(C)c1nc(C)nc(OC)n1 [Tribenuron methyl, tribenuron methyl]
% control VERAG [10, 19]: 47%
% control VERAG [10, 20]: 60%
% control VERAG ([10]; tribenuron methyl 22.5 g ai/ha): 63%
% control VERAG ([10]; tribenuron methyl 45 g ai/ha): 87%
% control VIOAR (Viola arvensis (VIOAR); [19]): 27%
% control VIOAR (Viola arvensis (VIOAR); [20]): 75%
% control VIOAR (Viola arvensis (VIOAR); tribenuron methyl 22.5 g ai/ha): 80%
% control VIOAR (Viola arvensis (VIOAR); tribenuron methyl 45 g ai/ha): 99%
